Results published in US10392391B2 (Vertex Pharmaceuticals Incorporated, priority 2012, dated 2019).
Read-outs that look alike come from different tables or passages of the source.

Biological target: ATR kinase (full-length ATR) (Homo sapiens (Human), UniProt Q13535)
Assay: ATR inhibition assay (radioactive-phosphate incorporation)
Type: biochemical
Outline: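 Radiometric 33P incorporation by 5 nM full-length ATR into 800 μM target peptide with 10 μM [γ-33P]ATP, in 50 mM Tris/HCl pH 7.5, 10 mM MgCl2, 1 mM DTT, 7% DMSO, 25° C. Compound pre-incubated 10 minutes; reaction stopped after 24 hours, captured on phosphocellulose. Ki(app) from non-linear regression of initial rates.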

[1] = Ki(app), 5 nM full-length ATR, 10 μM ATP, 25° C.

ATR kinase (full-length ATR), sequence (Q13535 whole entry): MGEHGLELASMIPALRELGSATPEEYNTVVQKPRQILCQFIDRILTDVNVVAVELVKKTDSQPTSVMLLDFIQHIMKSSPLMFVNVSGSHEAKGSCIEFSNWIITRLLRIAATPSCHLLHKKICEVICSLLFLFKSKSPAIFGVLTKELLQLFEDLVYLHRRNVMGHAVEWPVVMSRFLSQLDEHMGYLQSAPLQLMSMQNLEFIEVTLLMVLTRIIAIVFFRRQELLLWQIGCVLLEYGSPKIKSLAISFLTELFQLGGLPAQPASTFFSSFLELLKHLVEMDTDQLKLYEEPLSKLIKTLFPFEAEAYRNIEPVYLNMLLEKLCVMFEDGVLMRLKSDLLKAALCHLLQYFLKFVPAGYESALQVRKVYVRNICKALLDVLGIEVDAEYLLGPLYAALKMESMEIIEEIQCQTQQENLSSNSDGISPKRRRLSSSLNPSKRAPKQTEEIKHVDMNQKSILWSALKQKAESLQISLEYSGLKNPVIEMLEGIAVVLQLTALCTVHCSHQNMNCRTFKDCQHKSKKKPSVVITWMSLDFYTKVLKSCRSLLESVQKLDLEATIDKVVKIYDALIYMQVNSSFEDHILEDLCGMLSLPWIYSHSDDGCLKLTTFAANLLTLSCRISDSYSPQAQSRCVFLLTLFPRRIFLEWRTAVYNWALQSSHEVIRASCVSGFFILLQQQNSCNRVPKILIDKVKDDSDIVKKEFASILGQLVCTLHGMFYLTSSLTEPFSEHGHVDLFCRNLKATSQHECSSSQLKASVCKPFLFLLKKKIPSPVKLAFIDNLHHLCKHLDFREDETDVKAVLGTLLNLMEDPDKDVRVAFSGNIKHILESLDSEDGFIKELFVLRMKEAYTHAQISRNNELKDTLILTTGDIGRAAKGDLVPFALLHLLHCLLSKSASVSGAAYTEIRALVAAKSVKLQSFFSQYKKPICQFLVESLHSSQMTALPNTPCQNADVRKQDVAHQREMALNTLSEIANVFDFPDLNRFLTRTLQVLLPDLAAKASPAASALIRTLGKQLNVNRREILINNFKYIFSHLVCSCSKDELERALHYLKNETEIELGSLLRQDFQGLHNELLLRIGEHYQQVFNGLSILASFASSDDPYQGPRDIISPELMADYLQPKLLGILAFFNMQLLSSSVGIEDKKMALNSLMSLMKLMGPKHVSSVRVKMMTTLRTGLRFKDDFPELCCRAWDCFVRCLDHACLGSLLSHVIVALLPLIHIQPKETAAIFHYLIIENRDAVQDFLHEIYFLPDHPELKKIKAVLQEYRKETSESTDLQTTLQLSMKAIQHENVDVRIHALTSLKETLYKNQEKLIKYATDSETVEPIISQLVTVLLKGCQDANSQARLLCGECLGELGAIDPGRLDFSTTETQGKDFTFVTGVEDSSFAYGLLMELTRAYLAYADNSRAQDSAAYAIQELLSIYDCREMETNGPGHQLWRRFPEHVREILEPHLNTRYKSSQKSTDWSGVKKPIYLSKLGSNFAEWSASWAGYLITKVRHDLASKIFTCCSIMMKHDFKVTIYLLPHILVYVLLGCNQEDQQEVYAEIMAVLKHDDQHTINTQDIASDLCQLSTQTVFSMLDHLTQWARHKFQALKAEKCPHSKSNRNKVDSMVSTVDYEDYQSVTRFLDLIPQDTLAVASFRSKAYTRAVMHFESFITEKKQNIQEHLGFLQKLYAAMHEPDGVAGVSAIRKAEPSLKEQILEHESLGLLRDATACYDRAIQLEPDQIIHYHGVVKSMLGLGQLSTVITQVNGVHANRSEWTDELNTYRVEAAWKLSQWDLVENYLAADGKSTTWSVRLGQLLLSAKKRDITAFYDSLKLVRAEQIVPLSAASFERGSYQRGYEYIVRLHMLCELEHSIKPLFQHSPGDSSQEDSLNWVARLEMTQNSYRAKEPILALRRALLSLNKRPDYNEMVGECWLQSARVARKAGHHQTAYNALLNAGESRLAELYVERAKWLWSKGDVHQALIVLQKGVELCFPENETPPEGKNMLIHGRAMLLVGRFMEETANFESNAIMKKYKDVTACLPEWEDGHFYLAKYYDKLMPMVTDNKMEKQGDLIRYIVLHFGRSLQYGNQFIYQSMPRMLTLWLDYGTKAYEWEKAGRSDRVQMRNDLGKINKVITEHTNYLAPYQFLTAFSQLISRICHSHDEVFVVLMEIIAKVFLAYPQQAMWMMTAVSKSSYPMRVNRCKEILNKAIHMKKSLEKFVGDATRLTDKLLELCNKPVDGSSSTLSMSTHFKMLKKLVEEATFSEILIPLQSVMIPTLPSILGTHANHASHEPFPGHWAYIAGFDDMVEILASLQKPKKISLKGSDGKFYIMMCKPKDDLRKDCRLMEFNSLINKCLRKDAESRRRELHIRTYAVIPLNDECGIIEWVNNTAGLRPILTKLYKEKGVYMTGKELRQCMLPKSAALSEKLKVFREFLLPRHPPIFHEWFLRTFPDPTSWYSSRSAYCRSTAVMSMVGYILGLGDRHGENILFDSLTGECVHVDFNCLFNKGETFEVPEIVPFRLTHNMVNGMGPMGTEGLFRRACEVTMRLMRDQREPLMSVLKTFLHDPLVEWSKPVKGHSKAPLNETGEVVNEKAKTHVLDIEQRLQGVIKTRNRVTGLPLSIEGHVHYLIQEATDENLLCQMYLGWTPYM

SMILES | Ki [1] [nM] | Ki [nM]
Nc1nn2cc(F)cnc2c1C(=O)Nc1cnccc1N1CCCC2(COC2)C1 [I-N-253, N-(4-(2-oxa-6-azaspiro[3.5]nonan-6-yl)pyridin-3-yl)-2-amino-6-fluoropyrazolo[1,5-a]pyrimidine-3-carboxamide] | 10 to 1000 | 
CN1CCN(c2ccncc2NC(=O)c2c(N)nn3cc(CC#N)cnc23)CC1 [I-N-82, 2-amino-6-(cyanomethyl)-N-(4-(4-methylpiperazin-1-yl)pyridin-3-yl)pyrazolo[1,5-a]pyrimidine-3-carboxamide] | < 10 | 
Nc1nn2cc(F)cnc2c1C(=O)Nc1cnccc1CN1CCCC1=O [I-C-76, 2-amino-6-fluoro-N-(4-((2-oxopyrrolidin-1-yl)methyl)pyridin-3-yl)pyrazolo[1,5-a]pyrimidine-3-carboxamide] |  | 1000 to 5000
CN1CCN(c2ccncc2NC(=O)c2c(N)nn3cc(F)cnc23)CC1=O [I-N-209, 2-amino-6-fluoro-N-(4-(4-methyl-3-oxopiperazin-1-yl)pyridin-3-yl)pyrazolo[1,5-a]pyrimidine-3-carboxamide] | 10 to 1000 | 
N#CCc1cnc2c(C(=O)Nc3cnccc3N3CCOCC3)c(N)nn2c1 [I-N-81, 2-amino-6-(cyanomethyl)-N-(4-morpholinopyridin-3-yl)pyrazolo[1,5-a]pyrimidine-3-carboxamide] | 10 to 1000 | 
CN1CCC(N(C)S(=O)(=O)C2CCN(c3c(F)cncc3NC(=O)c3c(N)nn4cc(F)cnc34)CC2)CC1 [I-N-148, 2-amino-6-fluoro-N-(5-fluoro-4-(4-(N-methyl-N-(1-methylpiperidin-4-yl)sulfamoyl)piperidin-1-yl)pyridin-3-yl)pyrazolo[1,5-a]pyrimidine-3-carboxamide] | 10 to 1000 | 
CN1CCN(c2c(NC(=O)c3c(N)nn4cc(F)cnc34)cncc2C2CC2)CC1 [I-N-5, 2-amino-N-(5-cyclopropyl-4-(4-methylpiperazin-1-yl)pyridin-3-yl)-6-fluoropyrazolo[1,5-a]pyrimidine-3-carboxamide] | 10 to 1000 | 
Nc1nn2cc(F)cnc2c1C(=O)Nc1cnccc1-c1ccc(C(=O)N2CCC(N3CCCC3)CC2)nc1 [I-C-53, 2-amino-6-fluoro-N-(6-(4-(pyrrolidin-1-yl)piperidine-1-carbonyl)-[3,4′-bipyridin]-3′-yl)pyrazolo[1,5-a]pyrimidine-3-carboxamide] | 10 to 1000 | 
Nc1nn2cc(F)cnc2c1C(=O)Nc1cncc2c1CCNC2 [I-C-7, 2-amino-6-fluoro-N-(5,6,7,8-tetrahydro-2,7-naphthyridin-4-yl)pyrazolo[1,5-a]pyrimidine-3-carboxamide] | 10 to 1000 | 
CN1CC2CN(C(=O)C3CCN(c4c(F)cncc4NC(=O)c4c(N)nn5cc(F)cnc45)CC3)CC2C1 (stereo not drawn) [I-G-18, 2-amino-6-fluoro-N-(5-fluoro-4-(4-(5-methyloctahydropyrrolo[3,4-c]pyrrole-2-carbonyl)piperidin-1-yl)pyridin-3-yl)pyrazolo[1,5-a]pyrimidine-3-carboxamide] |  | 10 to 1000
Nc1nn2cc(F)cnc2c1C(=O)Nc1cnccc1OC1CCS(=O)(=O)CC1 [I-O-45, 2-amino-N-(4-((1,1-dioxidotetrahydro-2H-thiopyran-4-yl)oxy)pyridin-3-yl)-6-fluoropyrazolo[1,5-a]pyrimidine-3-carboxamide] | 10 to 1000 | 
CN(C)[C@@H]1CCN(C(=O)C2CCN(c3c(F)cncc3NC(=O)c3c(N)nn4cc(F)cnc34)CC2)C1 [I-G-11, (R)-2-amino-N-(4-(4-(3-(dimethylamino)pyrrolidine-1-carbonyl)piperidin-1-yl)-5-fluoropyridin-3-yl)-6-fluoropyrazolo[1,5-a]pyrimidine-3-carboxamide] | 10 to 1000 | 
CN1CCN(C(=O)C2CCN(c3ccncc3NC(=O)c3c(N)nn4cc(F)cnc34)CC2)CC1 [I-G-1, 2-amino-6-fluoro-N-(4-(4-(4-methylpiperazine-1-carbonyl)piperidin-1-yl)pyridin-3-yl)pyrazolo[1,5-a]pyrimidine-3-carboxamide] | 10 to 1000 | 
Nc1nn2cc(F)cnc2c1C(=O)Nc1cncc(F)c1N1CCC(C(=O)N2CC(F)C2)CC1 [I-G-74, 2-amino-6-fluoro-N-(5-fluoro-4-(4-(3-fluoroazetidine-1-carbonyl)piperidin-1-yl)pyridin-3-yl)pyrazolo[1,5-a]pyrimidine-3-carboxamide] | 10 to 1000 | 
CC(C)(C)N1CCN(c2ccncc2NC(=O)c2c(N)nn3cc(Cl)cnc23)CC1 [I-N-34, 2-amino-N-(4-(4-(tert-butyl)piperazin-1-yl)pyridin-3-yl)-6-chloropyrazolo[1,5-a]pyrimidine-3-carboxamide] |  | 1000 to 5000
Nc1nn2cc(F)cnc2c1C(=O)Nc1cnccc1N1CCC(S(=O)(=O)N2CCOCC2)CC1 [I-N-170, 2-amino-6-fluoro-N-(4-(4-(morpholinosulfonyl)piperidin-1-yl)pyridin-3-yl)pyrazolo[1,5-a]pyrimidine-3-carboxamide] | 10 to 1000 | 
Nc1nn2cc(F)cnc2c1C(=O)Nc1cncc(F)c1N1CCC(C(=O)N2CC3CCC(C2)N3)CC1 [I-G-44, N-(4-(4-(3,8-diazabicyclo[3.2.1]octane-3-carbonyl)piperidin-1-yl)-5-fluoropyridin-3-yl)-2-amino-6-fluoropyrazolo[1,5-a]pyrimidine-3-carboxamide] | 10 to 1000 | 
COc1ccc(-c2ccncc2NC(=O)c2c(N)nn3cc(F)cnc23)cn1 [I-C-27, 2-amino-6-fluoro-N-(6-methoxy-[3,4′-bipyridin]-3′-yl)pyrazolo[1,5-a]pyrimidine-3-carboxamide] | 10 to 1000 | 
CN1CCN(C(=O)C2CCN(c3c(F)cncc3NC(=O)c3c(N)nn4cc(F)cnc34)CC2)CC12CC2 [I-G-38, 2-amino-6-fluoro-N-(5-fluoro-4-(4-(4-methyl-4,7-diazaspiro[2.5]octane-7-carbonyl)piperidin-1-yl)pyridin-3-yl)pyrazolo[1,5-a]pyrimidine-3-carboxamide] | 10 to 1000 | 
N#CCc1cnc2c(C(=O)Nc3cnccc3OC3COC3)c(N)nn2c1 [I-O-38, 2-amino-6-(cyanomethyl)-N-(4-(oxetan-3-yloxy)pyridin-3-yl)pyrazolo[1,5-a]pyrimidine-3-carboxamide] | < 10 | 
CN1CCC(C(=O)N2CCN(c3c(F)cncc3NC(=O)c3c(N)nn4cc(F)cnc34)CC2)CC1 [I-N-128, 2-amino-6-fluoro-N-(5-fluoro-4-(4-(1-methylpiperidine-4-carbonyl)piperazin-1-yl)pyridin-3-yl)pyrazolo[1,5-a]pyrimidine-3-carboxamide] | 10 to 1000 | 
CN1CCN(C(=O)C2CCN(c3c(F)cncc3NC(=O)c3c(N)nn4cc(Cl)cnc34)CC2)CC1 [I-G-5, 2-amino-6-chloro-N-(5-fluoro-4-(4-(4-methylpiperazine-1-carbonyl)piperidin-1-yl)pyridin-3-yl)pyrazolo[1,5-a]pyrimidine-3-carboxamide] | 10 to 1000 | 
CN1CCN(c2c(F)cncc2NC(=O)c2c(N)nn3cc(C(C)(C)C#N)cnc23)CC1 [I-N-138, 2-amino-6-(2-cyanopropan-2-yl)-N-(5-fluoro-4-(4-methylpiperazin-1-yl)pyridin-3-yl)pyrazolo[1,5-a]pyrimidine-3-carboxamide] |  | 1000 to 5000
COCC1CN(c2ccncc2NC(=O)c2c(N)nn3cc(Cl)cnc23)CCN1C (stereo not drawn) [I-N-47, 2-amino-6-chloro-N-(4-(3-(methoxymethyl)-4-methylpiperazin-1-yl)pyridin-3-yl)pyrazolo[1,5-a]pyrimidine-3-carboxamide] | 10 to 1000 | 
